From patent publication US8710065B2, “Tricyclic inhibitors of kinases” (AbbVie Inc., priority 2011, dated 2014)

Target: T1, GST-tagged-Wee1 kinase (Homo sapiens, UniProt P30291)
T1 construct: purchased Carnabio (Carna Biosciences) 05-177
Experiment: Wee1 time-resolved fluorescence equilibrium binding assay (displacement of Oregon Green-labeled ATP-competitive kinase probe)
Details: for Ki: read-out: Wee-1 inhibition (Ki)
Summary of the method: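 Time-resolved fluorescence equilibrium binding with GST-Wee1, measuring displacement of a rapidly reversible Oregon Green-labelled ATP-competitive probe by competitive inhibitors; values reported as Ki.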

T1 sequence (P30291 whole entry): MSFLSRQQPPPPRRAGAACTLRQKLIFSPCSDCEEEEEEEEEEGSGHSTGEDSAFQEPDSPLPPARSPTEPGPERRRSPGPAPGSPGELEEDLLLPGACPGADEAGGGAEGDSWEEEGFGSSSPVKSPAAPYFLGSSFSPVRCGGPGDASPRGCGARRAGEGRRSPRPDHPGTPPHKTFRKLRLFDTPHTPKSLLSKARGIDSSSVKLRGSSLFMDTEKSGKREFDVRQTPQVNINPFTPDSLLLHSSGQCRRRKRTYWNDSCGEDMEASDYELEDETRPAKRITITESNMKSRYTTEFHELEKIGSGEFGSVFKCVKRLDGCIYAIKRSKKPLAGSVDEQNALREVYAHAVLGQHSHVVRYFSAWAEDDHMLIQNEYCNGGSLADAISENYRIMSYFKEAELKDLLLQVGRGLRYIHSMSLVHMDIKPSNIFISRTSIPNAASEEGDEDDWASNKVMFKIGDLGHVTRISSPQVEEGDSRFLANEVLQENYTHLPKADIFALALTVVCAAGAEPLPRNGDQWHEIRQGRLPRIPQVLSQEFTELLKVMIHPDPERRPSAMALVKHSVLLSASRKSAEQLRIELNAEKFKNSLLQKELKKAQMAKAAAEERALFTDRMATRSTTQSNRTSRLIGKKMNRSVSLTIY

Row | Compound | Ki [µM] | Kd [µM]
1 | CCN(CC)C(=O)C1CCCN(c2ccc(Nc3ncc4c(=O)n(-c5ccccc5Cl)c5nccn5c4n3)cc2)C1 (stereo not drawn) [Example 252, 1-(4-{[6-(2-chlorophenyl)-5-oxo-5,6-dihydroimidazo[1,2-a]pyrimido[5,4-e]pyrimidin-2-yl]amino}phenyl)-N,N-diethylpiperidine-3-carboxamide] | < 0.01 | –
2 | CN1CCN(c2ccc(Nc3ncc4c(=O)n(-c5c(Cl)cccc5Cl)c5nccn5c4n3)cc2)CC1 [Example 55, 6-(2,6-dichlorophenyl)-2-{[4-(4-methylpiperazin-1-yl)phenyl]amino}imidazo[1,2-a]pyrimido[5,4-e]pyrimidin-5(6H)-one] | < 0.01 | –
3 | O=c1c2cnc(Nc3ccc(C(F)(F)F)cc3)nc2n2ccnc2n1-c1ccccc1Cl [Example 348, 6-(2-chlorophenyl)-2-{[4-(trifluoromethyl)phenyl]amino}imidazo[1,2-a]pyrimido[5,4-e]pyrimidin-5(6H)-one] | > 0.1 | –
4 | CN1CCN(c2ccc(Nc3ncc4c(=O)n(C5CCCCC5)c5nccn5c4n3)cc2)CC1 [Example 24, 6-cyclohexyl-2-{[4-(4-methylpiperazin-1-yl)phenyl]amino}imidazo[1,2-a]pyrimido[5,4-e]pyrimidin-5(6H)-one] | > 0.1 | –
5 | CN(CCOC(=O)c1ccc(Nc2ncc3c(=O)n(-c4c(Cl)cccc4Cl)c4nccn4c3n2)cc1)C1CC1 [Example 201, 2-[cyclopropyl(methyl)amino]ethyl 4-{[6-(2,6-dichlorophenyl)-5-oxo-5,6-dihydroimidazo[1,2-a]pyrimido[5,4-e]pyrimidin-2-yl]amino}benzoate] | < 0.01 | –
6 | CN(C)C1Cc2ccc(Nc3ncc4c(=O)n(-c5c(F)cccc5Cl)c5nccn5c4n3)cc2C1 (stereo not drawn) [Example 139, 6-(2-chloro-6-fluorophenyl)-2-{[2-(dimethylamino)-2,3-dihydro-1H-inden-5-yl]amino}imidazo[1,2-a]pyrimido[5,4-e]pyrimidin-5(6H)-one] | < 0.01 | –
7 | CCN(CC)S(=O)(=O)c1ccc(Nc2ncc3c(=O)n(-c4ccccc4Cl)c4nccn4c3n2)cc1 [Example 294, 4-{[6-(2-chlorophenyl)-5-oxo-5,6-dihydroimidazo[1,2-a]pyrimido[5,4-e]pyrimidin-2-yl]amino}-N,N-diethylbenzenesulfonamide] | 0.01 to 0.1 | –
8 | CC(C)NC(=O)N1Cc2cc(Nc3ncc4c(=O)n(-c5c(F)cccc5Cl)c5nccn5c4n3)ccc2C2(CC2)C1 [Example 301, 7′-{[6-(2-chloro-6-fluorophenyl)-5-oxo-5,6-dihydroimidazo[1,2-a]pyrimido[5,4-e]pyrimidin-2-yl]amino}-N-(propan-2-yl)-1′H-spiro[cyclopropane-1,4′-isoquinoline]-2′(3′H)-carboxamide] | < 0.01 | –
9 | COc1cc(Nc2ncc3c(=O)n(-c4ccccc4Cl)c4nccn4c3n2)ccc1N1CCN(C(C)C)CC1 [Example 66, 6-(2-chlorophenyl)-2-({3-methoxy-4-[4-(propan-2-yl)piperazin-1-yl]phenyl}amino)imidazo[1,2-a]pyrimido[5,4-e]pyrimidin-5(6H)-one] | < 0.01 | –
10 | COc1cc(Nc2ncc3c(=O)n(-c4c(Cl)cccc4Cl)c4nccn4c3n2)ccc1N1CCN(C(C)C)CC1 [Example 137, 6-(2,6-dichlorophenyl)-2-({3-methoxy-4-[4-(propan-2-yl)piperazin-1-yl]phenyl}amino)imidazo[1,2-a]pyrimido[5,4-e]pyrimidin-5(6H)-one] | < 0.01 | –
11 | O=c1c2cnc(Nc3ccc(-c4csc(N5CCOCC5)n4)cc3)nc2n2ccnc2n1-c1ccccc1Cl [Example 360, 6-(2-chlorophenyl)-2-({4-[2-(morpholin-4-yl)-1,3-thiazol-4-yl]phenyl}amino)imidazo[1,2-a]pyrimido[5,4-e]pyrimidin-5(6H)-one] | 0.01 to 0.1 | –
12 | CN(C)C1CCN(C(=O)c2ccc(Nc3ncc4c(=O)n(-c5c(Cl)cccc5Cl)c5nccn5c4n3)cc2)CC1 [Example 237, 6-(2,6-dichlorophenyl)-2-[(4-{[4-(dimethylamino)piperidin-1-yl]carbonyl}phenyl)amino]imidazo[1,2-a]pyrimido[5,4-e]pyrimidin-5(6H)-one] | < 0.01 | –
13 | O=c1c2cnc(Nc3ccc(N4CCC(N5CCCC5)CC4)cc3)nc2n2ccnc2n1-c1c(Cl)cccc1Cl [Example 240, 6-(2,6-dichlorophenyl)-2-({4-[4-(pyrrolidin-1-yl)piperidin-1-yl]phenyl}amino)imidazo[1,2-a]pyrimido[5,4-e]pyrimidin-5(6H)-one] | < 0.01 | –
14 | CN1Cc2cc(Nc3ncc4c(=S)n(-c5ccccc5Cl)c5nccn5c4n3)ccc2C(C)(C)C1 [Example 334, 6-(2-chlorophenyl)-2-[(2,4,4-trimethyl-1,2,3,4-tetrahydroisoquinolin-7-yl)amino]imidazo[1,2-a]pyrimido[5,4-e]pyrimidine-5(6H)-thione] | < 0.01 | –
15 | O=c1c2cnc(Nc3ccc4c(c3)CC(N3CCCC3)C4)nc2n2ccnc2n1-c1c(F)cccc1Cl (stereo not drawn) [Example 259, 6-(2-chloro-6-fluorophenyl)-2-{[2-(pyrrolidin-1-yl)-2,3-dihydro-1H-inden-5-yl]amino}imidazo[1,2-a]pyrimido[5,4-e]pyrimidin-5(6H)-one] | < 0.01 | –
16 | COCCN1CCN(c2ccc(Nc3ncc4c(=O)n(-c5ccccc5Cl)c5nccn5c4n3)cc2)CC1 [Example 64, 6-(2-chlorophenyl)-2-({4-[4-(2-methoxyethyl)piperazin-1-yl]phenyl}amino)imidazo[1,2-a]pyrimido[5,4-e]pyrimidin-5(6H)-one] | < 0.01 | –
17 | O=c1c2cnc(Nc3ccc4c(c3)CC(NCCF)C4)nc2n2ccnc2n1-c1c(Cl)cccc1Cl (stereo not drawn) [Example 296, 6-(2,6-dichlorophenyl)-2-({2-[(2-fluoroethyl)amino]-2,3-dihydro-1H-inden-5-yl}amino)imidazo[1,2-a]pyrimido[5,4-e]pyrimidin-5(6H)-one] | < 0.01 | –
18 | CN(C)C1Cc2ccc(Nc3ncc4c(=O)n(-c5c(Cl)cccc5Cl)c5nccn5c4n3)cc2C1 (stereo not drawn) [Example 114, 6-(2,6-dichlorophenyl)-2-{[2-(dimethylamino)-2,3-dihydro-1H-inden-5-yl]amino}imidazo[1,2-a]pyrimido[5,4-e]pyrimidin-5(6H)-one] | < 0.01 | –
19 | O=C(NCCOCCOCCN1CCN(c2ccc(-c3cc4c(-c5cnc(C6(O)CCC6)s5)c(Cl)cnc4[nH]3)cc2)CC1)c1ccc2c(c1)C(=O)OC21c2cc(F)c(O)cc2Oc2cc(O)c(F)cc21 [fluorescent probe, N-(2-(2-(2-(4-(4-(5-chloro-4-(2-(1-hydroxycyclobutyl)thiazol-5-yl)-1H-pyrrolo[2,3-b]pyridin-2-yl)phenyl)piperazin-1-yl)ethoxy)ethoxy)ethyl)-2′,7′-difluoro-3′,6′-dihydroxy-3-oxo-3H-spiro[isobenzofuran-1,9′-xanthene]-5-carboxamide, reference compound] | – | 0.137
20 | CN1CCC(c2ccc(Nc3ncc4c(=O)n(-c5c(F)cccc5Cl)c5nccn5c4n3)cc2)CC1 [Example 309, 6-(2-chloro-6-fluorophenyl)-2-{[4-(1-methylpiperidin-4-yl)phenyl]amino}imidazo[1,2-a]pyrimido[5,4-e]pyrimidin-5(6H)-one] | < 0.01 | –
21 | O=c1c2cnc(Nc3ccc(N4CCN5CCC[C@H]5C4)cc3)nc2n2ccnc2n1-c1ccccc1Cl [Example 325, 6-(2-chlorophenyl)-2-({4-[(8aS)-hexahydropyrrolo[1,2-a]pyrazin-2(1H)-yl]phenyl}amino)imidazo[1,2-a]pyrimido[5,4-e]pyrimidin-5(6H)-one] | < 0.01 | –
